Test: method code SF-AS, from DOI: 10.1080/02772240109358997

SMILES | logP
CCCCC(CCCC)(C(=O)OCC)S(=O)(=O)c1ccc([N+](=O)[O-])cc1 | 3.81
COC(=O)C(C)(C)S(=O)(=O)c1ccc([N+](=O)[O-])cc1 | 1.38
CCOC(=O)CC(CC(=O)OCC)(C(=O)OC(C)C)S(=O)(=O)c1ccc([N+](=O)[O-])cc1 | 3.56
CCOC(=O)CC(C(=O)OC)S(=O)(=O)c1ccc([N+](=O)[O-])cc1 (stereo not drawn) | 1.4
C=CCC(C)(C(=O)OCC)S(=O)(=O)c1ccc([N+](=O)[O-])cc1 (stereo not drawn) | 2.3
CC(C(=O)OC1CCCCC1)S(=O)(=O)c1ccc([N+](=O)[O-])cc1 (stereo not drawn) | 2.82
CCCCC(CCCC)(C(=O)OC(C)C)S(=O)(=O)c1ccc([N+](=O)[O-])cc1 | 4.06
COC(=O)C(C)S(=O)(=O)c1ccc([N+](=O)[O-])cc1 (stereo not drawn) | 1.06
CCC(CC)(C(=O)OC)S(=O)(=O)c1ccc([N+](=O)[O-])cc1 | 2.24
CCOC(=O)C(Cc1ccccc1)(Cc1ccccc1)S(=O)(=O)c1ccc([N+](=O)[O-])cc1 | 3.4

Other lines, results leading:

logP | SMILES
3.68 | CC(C)COC(=O)C(=Cc1ccccc1)S(=O)(=O)c1ccc([N+](=O)[O-])cc1
4.4 | CCOC(=O)C(C)(c1cccc2ccccc12)S(=O)(=O)c1ccc([N+](=O)[O-])cc1 (stereo not drawn)
3.2 | CCOC(=O)C(=Cc1ccccc1)S(=O)(=O)c1ccc([N+](=O)[O-])cc1
2.9 | COC(=O)C(=Cc1ccccc1)S(=O)(=O)c1ccc([N+](=O)[O-])cc1
3.62 | CC(C)OC(=O)C(=Cc1ccccc1)S(=O)(=O)c1ccc([N+](=O)[O-])cc1
3.92 | Cc1ccc(S(=O)(=O)C(=Cc2ccccc2)C(=O)OC(C)C)cc1
4.18 | CC(C)OC(=O)C(=Cc1ccccc1)S(=O)(=O)c1ccc(Cl)cc1
2.18 | CC(C)OC(=O)CC(C(=O)OC(C)C)S(=O)(=O)c1ccc([N+](=O)[O-])cc1 (stereo not drawn)

— the SangsterLogP compilation
